What follows are compounds tested on HCT116 colorectal cancer cells (assay: Cisplatin sensitization assay (96 h cell viability MTS)). Settings: 96 h MTS, compound plus Cisplatin.
Assay type: cell-based
Outline: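 Simultaneous addition of compound and cisplatin (2-fold series, top 10 μM final, full matrix), followed by 96 h culture at 37° C/5% CO2 and a 1 h MTS viability read.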
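Note: compound concentration needed to lower the Cisplatin-alone IC50 by a set fold.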

Row | SMILES | Cisplatin Sensitization Assay
1 | Nc1nn2cc(F)cnc2c1C(=O)Nc1cnccc1N1CCN(C2COC2)CC1 [I-N-1, 2-amino-6-fluoro-N-(4-(4-(oxetan-3-yl)piperazin-1-yl)pyridin-3-yl)pyrazolo[1,5-a]pyrimidine-3-carboxamide] | ++ (Compounds with a Cisplatin sensitization value >0.02 μM but <0.2 μM are marked with “++.”)
2 | N#CCc1cnc2c(C(=O)Nc3cnccc3N3CCC(N)CC3)c(N)nn2c1 [I-N-2, 2-amino-N-(4-(4-aminopiperidin-1-yl)pyridin-3-yl)-6-(cyanomethyl)pyrazolo[1,5-a]pyrimidine-3-carboxamide] | +++ (Compounds with a Cisplatin sensitization value of <0.02 μM are marked with “+++.”)
3 | CN1CCN(c2ccncc2NC(=O)c2c(N)nn3cc(F)cnc23)CC1 [I-N-3, 2-amino-6-fluoro-N-(4-(4-methylpiperazin-1-yl)pyridin-3-yl)pyrazolo[1,5-a]pyrimidine-3-carboxamide] | +++ (Compounds with a Cisplatin sensitization value of <0.02 μM are marked with “+++.”)
4 | CC(C)N1CCN(c2ccncc2NC(=O)c2c(N)nn3cc(F)cnc23)CC1 [I-N-4, 2-amino-6-fluoro-N-(4-(4-isopropylpiperazin-1-yl)pyridin-3-yl)pyrazolo[1,5-a]pyrimidine-3-carboxamide] | +++ (Compounds with a Cisplatin sensitization value of <0.02 μM are marked with “+++.”)
5 | CN1CCN(c2c(NC(=O)c3c(N)nn4cc(F)cnc34)cncc2C2CC2)CC1 [I-N-5, 2-amino-N-(5-cyclopropyl-4-(4-methylpiperazin-1-yl)pyridin-3-yl)-6-fluoropyrazolo[1,5-a]pyrimidine-3-carboxamide] | ++ (Compounds with a Cisplatin sensitization value >0.02 μM but <0.2 μM are marked with “++.”)
6 | Nc1nn2cc(F)cnc2c1C(=O)Nc1cnccc1-n1ccnc1 [I-N-7, N-(4-(1H-imidazol-1-yl)pyridin-3-yl)-2-amino-6-fluoropyrazolo[1,5-a]pyrimidine-3-carboxamide] | ++ (Compounds with a Cisplatin sensitization value >0.02 μM but <0.2 μM are marked with “++.”)
7 | CNCCc1cnn(-c2ccncc2NC(=O)c2c(N)nn3cc(F)cnc23)c1 [I-N-8, 2-amino-6-fluoro-N-(4-(4-(2-(methylamino)ethyl)-1H-pyrazol-1-yl)pyridin-3-yl)pyrazolo[1,5-a]pyrimidine-3-carboxamide] | + (Compounds with a Cisplatin sensitization value >0.2 μM but <5 μM are marked with “+.”)
8 | CN(C)CCc1cnn(-c2ccncc2NC(=O)c2c(N)nn3cc(F)cnc23)c1 [I-N-9, 2-amino-N-(4-(4-(2-(dimethylamino)ethyl)-1H-pyrazol-1-yl)pyridin-3-yl)-6-fluoropyrazolo[1,5-a]pyrimidine-3-carboxamide] | + (Compounds with a Cisplatin sensitization value >0.2 μM but <5 μM are marked with “+.”)
9 | Nc1nn2cc(F)cnc2c1C(=O)Nc1cnccc1N1CCN([C@@H]2CCOC2)CC1 [I-N-10, (R)-2-amino-6-fluoro-N-(4-(4-(tetrahydrofuran-3-yl)piperazin-1-yl)pyridin-3-yl)pyrazolo[1,5-a]pyrimidine-3-carboxamide] | ++ (Compounds with a Cisplatin sensitization value >0.02 μM but <0.2 μM are marked with “++.”)
10 | Nc1nn2cc(F)cnc2c1C(=O)Nc1cnccc1N1CCN(C2CCOCC2)CC1 [I-N-11, 2-amino-6-fluoro-N-(4-(4-(tetrahydro-2H-pyran-4-yl)piperazin-1-yl)pyridin-3-yl)pyrazolo[1,5-a]pyrimidine-3-carboxamide] | ++ (Compounds with a Cisplatin sensitization value >0.02 μM but <0.2 μM are marked with “++.”)
11 | Nc1nn2cc(F)cnc2c1C(=O)Nc1cncc(F)c1N1CCN(C2COC2)CC1 [I-N-13, 2-amino-6-fluoro-N-(5-fluoro-4-(4-(oxetan-3-yl)piperazin-1-yl)pyridin-3-yl)pyrazolo[1,5-a]pyrimidine-3-carboxamide] | +++ (Compounds with a Cisplatin sensitization value of <0.02 μM are marked with “+++.”)
12 | CN1CCN(c2c(F)cncc2NC(=O)c2c(N)nn3cc(Cl)cnc23)CC1 [I-N-14, 2-amino-6-chloro-N-(5-fluoro-4-(4-methylpiperazin-1-yl)pyridin-3-yl)pyrazolo[1,5-a]pyrimidine-3-carboxamide] | +++ (Compounds with a Cisplatin sensitization value of <0.02 μM are marked with “+++.”)
13 | CN1CCN(c2c(F)cncc2NC(=O)c2c(N)nn3cc(F)cnc23)CC1 [I-N-15, 2-amino-6-fluoro-N-(5-fluoro-4-(4-methylpiperazin-1-yl)pyridin-3-yl)pyrazolo[1,5-a]pyrimidine-3-carboxamide] | +++ (Compounds with a Cisplatin sensitization value of <0.02 μM are marked with “+++.”)
14 | Cc1cncc(NC(=O)c2c(N)nn3cc(F)cnc23)c1N1CCN(C2COC2)CC1 [I-N-16, 2-amino-6-fluoro-N-(5-methyl-4-(4-(oxetan-3-yl)piperazin-1-yl)pyridin-3-yl)pyrazolo[1,5-a]pyrimidine-3-carboxamide] | +++ (Compounds with a Cisplatin sensitization value of <0.02 μM are marked with “+++.”)
15 | CCN1CCN(c2ccncc2NC(=O)c2c(N)nn3cc(F)cnc23)CC1 [I-N-17, 2-amino-N-(4-(4-ethylpiperazin-1-yl)pyridin-3-yl)-6-fluoropyrazolo[1,5-a]pyrimidine-3-carboxamide] | +++ (Compounds with a Cisplatin sensitization value of <0.02 μM are marked with “+++.”)
16 | Nc1nn2cc(F)cnc2c1C(=O)Nc1cnccc1N1CCN2CCC1CC2 [I-N-18, N-(4-(1,4-diazabicyclo[3.2.2]nonan-4-yl)pyridin-3-yl)-2-amino-6-fluoropyrazolo[1,5-a]pyrimidine-3-carboxamide] | ++ (Compounds with a Cisplatin sensitization value >0.02 μM but <0.2 μM are marked with “++.”)
17 | Nc1nn2cc(F)cnc2c1C(=O)Nc1cnccc1N1CCN(CC(F)(F)F)CC1 [I-N-20, 2-amino-6-fluoro-N-(4-(4-(2,2,2-trifluoroethyl)piperazin-1-yl)pyridin-3-yl)pyrazolo[1,5-a]pyrimidine-3-carboxamide] | +++ (Compounds with a Cisplatin sensitization value of <0.02 μM are marked with “+++.”)
18 | Nc1nn2cc(F)cnc2c1C(=O)Nc1cnccc1N1CCN2CCC[C@H]2C1 [I-N-21, (S)-2-amino-6-fluoro-N-(4-(hexahydropyrrolo[1,2-a]pyrazin-2(1H)-yl)pyridin-3-yl)pyrazolo[1,5-a]pyrimidine-3-carboxamide] | +++ (Compounds with a Cisplatin sensitization value of <0.02 μM are marked with “+++.”)
19 | C[C@@H]1CN(C2COC2)CCN1c1ccncc1NC(=O)c1c(N)nn2cc(F)cnc12 [I-N-23, (R)-2-amino-6-fluoro-N-(4-(2-methyl-4-(oxetan-3-yl)piperazin-1-yl)pyridin-3-yl)pyrazolo[1,5-a]pyrimidine-3-carboxamide] | +++ (Compounds with a Cisplatin sensitization value of <0.02 μM are marked with “+++.”)
20 | C[C@H]1CN(C2COC2)CCN1c1ccncc1NC(=O)c1c(N)nn2cc(F)cnc12 [I-N-24, (S)-2-amino-6-fluoro-N-(4-(2-methyl-4-(oxetan-3-yl)piperazin-1-yl)pyridin-3-yl)pyrazolo[1,5-a]pyrimidine-3-carboxamide] | +++ (Compounds with a Cisplatin sensitization value of <0.02 μM are marked with “+++.”)
21 | Nc1nn2cc(F)cnc2c1C(=O)Nc1cnccc1-n1cccn1 [I-N-26, N-(4-(1H-pyrazol-1-yl)pyridin-3-yl)-2-amino-6-fluoropyrazolo[1,5-a]pyrimidine-3-carboxamide] | + (Compounds with a Cisplatin sensitization value >0.2 μM but <5 μM are marked with “+.”)
22 | Nc1nn2cc(F)cnc2c1C(=O)Nc1cnccc1-n1cnc(C(F)(F)F)c1 [I-N-27, 2-amino-6-fluoro-N-(4-(4-(trifluoromethyl)-1H-imidazol-1-yl)pyridin-3-yl)pyrazolo[1,5-a]pyrimidine-3-carboxamide] | ++ (Compounds with a Cisplatin sensitization value >0.02 μM but <0.2 μM are marked with “++.”)
23 | Cc1nccn1-c1ccncc1NC(=O)c1c(N)nn2cc(F)cnc12 [I-N-28, 2-amino-6-fluoro-N-(4-(2-methyl-1H-imidazol-1-yl)pyridin-3-yl)pyrazolo[1,5-a]pyrimidine-3-carboxamide] | +++ (Compounds with a Cisplatin sensitization value of <0.02 μM are marked with “+++.”)
24 | Nc1nn2cc(Cl)cnc2c1C(=O)Nc1cnccc1-n1ccnc1 [I-N-29, N-(4-(1H-imidazol-1-yl)pyridin-3-yl)-2-amino-6-chloropyrazolo[1,5-a]pyrimidine-3-carboxamide] | ++ (Compounds with a Cisplatin sensitization value >0.02 μM but <0.2 μM are marked with “++.”)
25 | Cc1nc(C(F)(F)F)cn1-c1ccncc1NC(=O)c1c(N)nn2cc(F)cnc12 [I-N-30, 2-amino-6-fluoro-N-(4-(2-methyl-4-(trifluoromethyl)-1H-imidazol-1-yl)pyridin-3-yl)pyrazolo[1,5-a]pyrimidine-3-carboxamide] | ++ (Compounds with a Cisplatin sensitization value >0.02 μM but <0.2 μM are marked with “++.”)
26 | Nc1nn2cc(F)cnc2c1C(=O)Nc1cnccc1N1CCN(C2COC2)C2CC21 (stereo not shown) [I-N-31, 2-amino-6-fluoro-N-(4-(5-(oxetan-3-yl)-2,5-diazabicyclo[4.1.0]heptan-2-yl)pyridin-3-yl)pyrazolo[1,5-a]pyrimidine-3-carboxamide] | + (Compounds with a Cisplatin sensitization value >0.2 μM but <5 μM are marked with “+.”)
27 | Nc1nn2cc(F)cnc2c1C(=O)Nc1cncc(C2CC2)c1N1CCN(C2COC2)CC1 [I-N-32, 2-amino-N-(5-cyclopropyl-4-(4-(oxetan-3-yl)piperazin-1-yl)pyridin-3-yl)-6-fluoropyrazolo[1,5-a]pyrimidine-3-carboxamide] | ++ (Compounds with a Cisplatin sensitization value >0.02 μM but <0.2 μM are marked with “++.”)
28 | Nc1nn2cc(F)cnc2c1C(=O)Nc1cnccc1N1CCN(C2CC2)CC1 [I-N-33, 2-amino-N-(4-(4-cyclopropylpiperazin-1-yl)pyridin-3-yl)-6-fluoropyrazolo[1,5-a]pyrimidine-3-carboxamide] | + (Compounds with a Cisplatin sensitization value >0.2 μM but <5 μM are marked with “+.”)
